IC50 and Kp data for 2 compounds are collected here from patent US20070259923A1, “MGluR5 modulators IV” (AstraZeneca AB, priority 2006, published 2007).

pIC50: −log10 of the molar value.

Data set [1] addresses T1, human mGluR5d (Homo sapiens, UniProt P41594).
T1 construct: expressed in transfected cells; the IP3 assay names GHEK cells stably expressing human mGluR5d
Nature of the data set: FLIPR assay, mGluR5 antagonism (intracellular calcium mobilization). Type of data set: cell-based. The settings on record: cells expressing human mGluR5d; read-out: FLIPR hmGluR5d. From the text: The properties of the compounds of the invention can be analyzed using standard assays for pharmacological activity. Examples of glutamate receptor assays are well known in the art as described in for example Aramori et al., Neuron 8:757 (1992), Tanabe et al., Neuron 8:169 (1992), Miller et al., J. Neuroscience 15: 6103 (1995), Balazs, et al., J. Neurochemistry 69:151 (1997). The methodology described in these publications is incorporated herein by reference. Conveniently, the compounds of the invention can be studied by means of an assay (FLIPR) that measures the mobilization of intracellular calcium, [Ca^2+]i in cells expressing mGluR5 or another assay (IP3) that measures inositol phosphate turnover.
Cells expressing human mGluR5d as described in WO97/05252 are seeded at a density of 100,000 cells per well on collagen coated clear bottom 96-well plates with black sides and experiments are done 24 h following seeding. […] The fluorescence signal is sampled 50 times at 1 second intervals followed by 3 samples at 5 second intervals immediately after each of the two additions. Responses are measured as the difference between the peak height of the response to agonist, less the background fluorescence within the sample period. […]

A short description of data set [2]: Determination of brain to plasma ratio in rat. It counts as in vivo. The settings on record: brain and plasma, female Sprague Dawley rats, read-out: Brain/Plasma Ratio of compound in Rat. The procedure: Brain to plasma ratios are estimated in female Sprague Dawley rats. The compound is dissolved in water or another appropriate vehicle. For determination of brain to plasma ratio the compound is administrated as a subcutaneous, or an intravenous bolus injection, or an intravenous infusion, or an oral administration. At a predetermined time point after the administration a blood sample is taken with cardiac puncture. The rat is terminated by cutting the heart open, and the brain is immediately retained. The blood samples are collected in heparinized tubes and centrifuged within 30 minutes, in order to separate the plasma from the blood cells. The plasma is transferred to 96-well plates and stored at −20° C. until analysis. The brains are divided in half, and each half is placed in a pre-tarred tube and stored at −20° C. until analysis. Prior to the analysis, the brain samples are thawed and 3 ml/g brain tissue of distilled water is added to the tubes. The brain samples are sonicated in an ice bath until the samples are homogenized. Both brain and plasma samples are precipitated with acetonitrile. After centrifugation, the supernatant is diluted with 0.2% formic acid. […] After reconstitution of the residuals the samples are ready for injection onto the HPLC column.

T1 sequence (P41594 21-942 isoform P41594-3 limits assumed): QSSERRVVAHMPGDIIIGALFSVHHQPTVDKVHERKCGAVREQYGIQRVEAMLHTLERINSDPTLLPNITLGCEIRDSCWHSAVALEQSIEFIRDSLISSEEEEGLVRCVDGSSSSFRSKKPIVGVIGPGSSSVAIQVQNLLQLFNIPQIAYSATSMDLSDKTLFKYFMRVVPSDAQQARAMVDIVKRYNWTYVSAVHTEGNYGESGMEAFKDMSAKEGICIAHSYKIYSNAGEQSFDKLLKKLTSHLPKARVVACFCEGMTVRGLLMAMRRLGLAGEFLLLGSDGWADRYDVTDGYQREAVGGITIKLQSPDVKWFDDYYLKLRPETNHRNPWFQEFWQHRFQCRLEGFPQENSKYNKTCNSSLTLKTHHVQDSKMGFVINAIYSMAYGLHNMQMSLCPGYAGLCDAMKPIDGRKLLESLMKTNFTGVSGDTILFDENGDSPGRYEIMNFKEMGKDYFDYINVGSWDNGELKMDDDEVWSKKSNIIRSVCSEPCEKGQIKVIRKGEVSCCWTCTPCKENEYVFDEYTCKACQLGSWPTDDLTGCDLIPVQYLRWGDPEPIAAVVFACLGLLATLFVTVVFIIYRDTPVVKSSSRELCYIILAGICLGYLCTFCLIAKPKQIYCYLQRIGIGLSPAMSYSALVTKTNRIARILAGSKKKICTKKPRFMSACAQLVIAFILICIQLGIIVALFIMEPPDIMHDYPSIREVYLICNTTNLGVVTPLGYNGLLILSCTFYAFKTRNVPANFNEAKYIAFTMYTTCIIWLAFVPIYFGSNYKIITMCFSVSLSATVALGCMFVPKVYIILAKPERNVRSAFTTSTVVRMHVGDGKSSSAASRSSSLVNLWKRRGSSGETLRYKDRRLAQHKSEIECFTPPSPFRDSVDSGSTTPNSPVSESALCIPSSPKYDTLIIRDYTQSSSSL

For the compound `Cc1cc(-c2nnc(N3CCC[C@@H]3c3cc(-c4cccc(C#N)c4)on3)n2C)ccn1` [Example 12.4, 3-(3-{(R)-1-[4-Methyl-5-(2-methyl-pyridin-4-yl)-4H-[1,2,4]triazol-3-yl]-pyrrolidin-2-yl}-isoxazol-5-yl)-benzonitrile], the pIC50 in data set [1] was 7.33. Further, the Kp in data set [2] was found to be 0.06.

Regarding `Cn1c(-c2cccnc2)nnc1N1CCC[C@@H]1c1cc(-c2cccc(C#N)c2)on1` [Example 12.6, 3-{3-[(R)-1-(4-Methyl-5-pyridin-3-yl-4H-[1,2,4]triazol-3-yl)-pyrrolidin-2-yl]-isoxazol-5-yl}-benzonitrile], the pIC50 in data set [1] was 7.07. In data set [2], the Kp came to 0.05.
